Tested on: MV-4-11 cells
Assay: Gene expression microarray analysis (Affymetrix PrimeView) and GSEA
Assay type: cell-based, human
Set-up: RFU PODN (11730768_x_at) / Fold change /veh PODN (11730768_x_at) / RFU LINC00158 (11744669_a_at) / Fold change /veh LINC00158 (11744669_a_at) / RFU DUSP10 (11751237_a_at) / Fold change /veh DUSP10 (11751237_a_at) / RFU ID3 (11757404_x_at) / Fold change /veh ID3 (11757404_x_at) / RFU PLEKHG5 (11737974_s_at) / Fold change /veh PLEKHG5 (11737974_s_at) / RFU LRRC4B (11730491_at) / Fold change /veh LRRC4B (11730491_at) / RFU GIMAP4 (11747438_a_at) / Fold change /veh GIMAP4 (11747438_a_at) / RFU KRT8 (11758183_x_at) / Fold change /veh KRT8 (11758183_x_at) / RFU CNN1 (11734310_a_at) / Fold change /veh CNN1 (11734310_a_at) / RFU VPS37D (11726825_at) / Fold change /veh VPS37D (11726825_at) / RFU C10orf10 (11716522_x_at) / Fold change /veh C10orf10 (11716522_x_at) / RFU KIR2DL2 /// KIR2DL4 /// KIR2DL5A /// KIR2DL5B /// KIR2DS1 /// KIR2DS2 /// KIR2DS3 /// KIR2DS4 /// KIR3DL3 /// KIR3DL3 /// KIR3DS1 (11738374_at) / Fold change /veh KIR2DL2 /// KIR2DL4 /// KIR2DL5A /// KIR2DL5B /// KIR2DS1 /// KIR2DS2 /// KIR2DS3 /// KIR2DS4 /// KIR3DL3 /// KIR3DL3 /// KIR3DS1 (11738374_at) / RFU C1QL1 (11718748_at) / Fold change /veh C1QL1 (11718748_at) / RFU TMPRSS4 (11747572_a_at) / Fold change /veh TMPRSS4 (11747572_a_at) / RFU HAMP (11756126_x_at) / Fold change /veh HAMP (11756126_x_at) / RFU RNFT2 (11725882_a_at) / Fold change /veh RNFT2 (11725882_a_at) / RFU NR4A2 (11747474_a_at) / Fold change /veh NR4A2 (11747474_a_at) / RFU ABCC12 (11746883_a_at) / Fold change /veh ABCC12 (11746883_a_at) / RFU TMEM136 (11760407_x_at) / Fold change /veh TMEM136 (11760407_x_at) / RFU CLDN22 /// WWC2 (11732394_at) / Fold change /veh CLDN22 /// WWC2 (11732394_at) / RFU HLA-DPB1 (11760878_x_at) / Fold change /veh HLA-DPB1 (11760878_x_at) / RFU SPINT1 (11716480_a_at) / Fold change /veh SPINT1 (11716480_a_at) / RFU GAP43 (11754022_s_at) / Fold change /veh GAP43 (11754022_s_at) / RFU A4GNT (11735810_at) / Fold change /veh A4GNT (11735810_at) / RFU PRB3 (11715151_x_at) / Fold change /veh PRB3 (11715151_x_at) / RFU TUBB4B (11761932_at) / Fold change /veh TUBB4B (11761932_at) / RFU CAPN14 (11732068_a_at) / Fold change /veh CAPN14 (11732068_a_at) / RFU TMCC2 (11721928_a_at) / Fold change /veh TMCC2 (11721928_a_at) / RFU IRGQ (11745062_a_at) / Fold change /veh IRGQ (11745062_a_at) / RFU FAM174B (11720279_a_at) / Fold change /veh FAM174B (11720279_a_at) / RFU TMPRSS4 (11748680_a_at) / Fold change /veh TMPRSS4 (11748680_a_at) / RFU FAM212B (11763350_a_at) / Fold change /veh FAM212B (11763350_a_at) / RFU PLEKHG5 (11743358_a_at) / Fold change /veh PLEKHG5 (11743358_a_at) / RFU ZSCAN30 (11745921_a_at) / Fold change /veh ZSCAN30 (11745921_a_at) / RFU CMKLR1 (11741424_a_at) / Fold change /veh CMKLR1 (11741424_a_at) / RFU LOC101060620 /// MAPK8IP1 (11723275_at) / Fold change /veh LOC101060620 /// MAPK8IP1 (11723275_at) / RFU SPTSSB (11747773_x_at) / Fold change /veh SPTSSB (11747773_x_at) / RFU PRSS12 (11739890_at) / Fold change /veh PRSS12 (11739890_at) / RFU BIN1 (11741810_x_at) / Fold change /veh BIN1 (11741810_x_at) / RFU WNT11 (11732464_a_at) / Fold change /veh WNT11 (11732464_a_at) / RFU C10orf10 (11716521_a_at) / Fold change /veh C10orf10 (11716521_a_at) / RFU C5orf56 (11738089_at) / Fold change /veh C5orf56 (11738089_at) / RFU CYB561 (11721691_x_at) / Fold change /veh CYB561 (11721691_x_at) / RFU ANKRD19P (11752326_a_at) / Fold change /veh ANKRD19P (11752326_a_at) / RFU OR2T12 /// OR2T33 /// OR2T8 (11738714_s_at) / Fold change /veh OR2T12 /// OR2T33 /// OR2T8 (11738714_s_at) / RFU VCAN (11748164_a_at) / Fold change /veh VCAN (11748164_a_at) / RFU JSRP1 (11732532_at) / Fold change /veh JSRP1 (11732532_at) / RFU KRTAP10-11 (11738290_x_at) / Fold change /veh KRTAP10-11 (11738290_x_at) / RFU MYO3A (11730013_a_at) / Fold change /veh MYO3A (11730013_a_at) / RFU EBF3 (11725865_a_at) / Fold change /veh EBF3 (11725865_a_at) / RFU CAMK2N1 (11719241_x_at) / Fold change /veh CAMK2N1 (11719241_x_at) / RFU C5orf56 (11738088_a_at) / Fold change /veh C5orf56 (11738088_a_at) / RFU OLFML3 (11715873_a_at) / Fold change /veh OLFML3 (11715873_a_at) / RFU LOC100653217 /// NTM (11731650_a_at) / Fold change /veh LOC100653217 /// NTM (11731650_a_at) / RFU MAPK11 (11762145_a_at) / Fold change /veh MAPK11 (11762145_a_at) / RFU FIZ1 (11724087_x_at) / Fold change /veh FIZ1 (11724087_x_at) / RFU OASL (11726364_x_at) / Fold change /veh OASL (11726364_x_at) / RFU SOX15 (11748057_x_at) / Fold change /veh SOX15 (11748057_x_at) / RFU CD79A (11719716_a_at) / Fold change /veh CD79A (11719716_a_at) / RFU HIST1H1D (11736915_at) / Fold change /veh HIST1H1D (11736915_at) / RFU CASKIN2 (11723855_a_at) / Fold change /veh CASKIN2 (11723855_a_at) / RFU LOC730098 (11760151_x_at) / Fold change /veh LOC730098 (11760151_x_at) / RFU OR4N2 (11742367_at) / Fold change /veh OR4N2 (11742367_at) / RFU PRRT2 (11749266_a_at) / Fold change /veh PRRT2 (11749266_a_at) / RFU SNX32 (11753110_a_at) / Fold change /veh SNX32 (11753110_a_at) / RFU CDHR5 (11726645_a_at) / Fold change /veh CDHR5 (11726645_a_at) / RFU RCAN1 (11760418_a_at) / Fold change /veh RCAN1 (11760418_a_at) / RFU FAM167A (11723789_a_at) / Fold change /veh FAM167A (11723789_a_at) / RFU FAM26E (11764081_at) / Fold change /veh FAM26E (11764081_at) / RFU ISYNA1 (11749810_s_at) / Fold change /veh ISYNA1 (11749810_s_at) / RFU ACY1 (11761880_at) / Fold change /veh ACY1 (11761880_at) / RFU 11764098_at / Fold change /veh 11764098_at / RFU SAMD14 (11745864_x_at) / Fold change /veh SAMD14 (11745864_x_at) / RFU NPB (11741838_a_at) / Fold change /veh NPB (11741838_a_at) / RFU TMPRSS6 (11731388_a_at) / Fold change /veh TMPRSS6 (11731388_a_at) / RFU KRTAP10-2 (11738614_at) / Fold change /veh KRTAP10-2 (11738614_at) / RFU ARHGAP8 /// PRR5-ARHGAP8 (11727945_x_at) / Fold change /veh ARHGAP8 /// PRR5-ARHGAP8 (11727945_x_at) / RFU KRTAP5-7 /// NADSYN1 (11734609_at) / Fold change /veh KRTAP5-7 /// NADSYN1 (11734609_at) / RFU RASL12 (11751679_a_at) / Fold change /veh RASL12 (11751679_a_at) / RFU CDKN2B (11736163_a_at) / Fold change /veh CDKN2B (11736163_a_at) / RFU PRF1 (11729649_at) / Fold change /veh PRF1 (11729649_at) / RFU, ZNF638 /// ZNF638-IT1 / Fold change vs veh, ZNF638 /// ZNF638-IT1 / RFU, PANK3 / Fold change vs veh, PANK3 / RFU, SH3YL1 / Fold change vs veh, SH3YL1 / RFU, ZEB2 / Fold change vs veh, ZEB2 / RFU, NRIP1 / Fold change vs veh, NRIP1 / RFU, PTTG1IP / Fold change vs veh, PTTG1IP / RFU, CAPN2 / Fold change vs veh, CAPN2 / RFU, MED14 / Fold change vs veh, MED14 / RFU, SNORA58 / Fold change vs veh, SNORA58 / RFU, C1orf63 / Fold change vs veh, C1orf63 / RFU, LRRFIP1 / Fold change vs veh, LRRFIP1 / RFU, NDUFAF7 / Fold change vs veh, NDUFAF7 / RFU, SLC12A2 / Fold change vs veh, SLC12A2 / RFU, IBTK / Fold change vs veh, IBTK / RFU, ESF1 / Fold change vs veh, ESF1 / Fold change vs veh, TMEM50B / RFU, TAOK1 / Fold change vs veh, TAOK1 / RFU, ACBD3 / Fold change vs veh, ACBD3 / RFU, TMA16 / Fold change vs veh, TMA16 / RFU, RWDD3 / Fold change vs veh, RWDD3 / RFU, BCAT1 / Fold change vs veh, BCAT1 / RFU, EDEM3 / Fold change vs veh, EDEM3 / RFU, TMEM33 / Fold change vs veh, TMEM33 / RFU, WDR75 / Fold change vs veh, WDR75 / RFU, AHCTF1 / Fold change vs veh, AHCTF1 / RFU, TFRC / Fold change vs veh, TFRC / RFU, ZDHHC17 / Fold change vs veh, ZDHHC17 / RFU, NOM1 / Fold change vs veh, NOM1 / RFU, ARL8B / Fold change vs veh, ARL8B / RFU, ZBTB11 / Fold change vs veh, ZBTB11 / RFU, TAMM41 / Fold change vs veh, TAMM41 / RFU, KIAA1704 /// LOC100996395 / Fold change vs veh, KIAA1704 /// LOC100996395 / RFU, ING1 / Fold change vs veh, ING1 / RFU, TRMT61B / Fold change vs veh, TRMT61B / RFU, FUBP3 / Fold change vs veh, FUBP3 / RFU, TP53 / Fold change vs veh, TP53 / RFU, TNKS2 / Fold change vs veh, TNKS2 / RFU, ZFP14 / Fold change vs veh, ZFP14 / RFU, ACTR2 / Fold change vs veh, ACTR2 / RFU, PPP3R1 / Fold change vs veh, PPP3R1 / RFU, PIK3R1 / Fold change vs veh, PIK3R1 / RFU, HNRNPA1 / Fold change vs veh, HNRNPA1 / RFU, RNF170 / Fold change vs veh, RNF170 / RFU, ZNF28 / Fold change vs veh, ZNF28 / RFU, RNGTT / Fold change vs veh, RNGTT / RFU, OGT / Fold change vs veh, OGT / RFU, BRD1 / Fold change vs veh, BRD1 / RFU, MARS / Fold change vs veh, MARS / RFU, ZNF655 / Fold change vs veh, ZNF655 / RFU, FAHD1 / Fold change vs veh, FAHD1 / RFU, BDP1 / Fold change vs veh, BDP1 / RFU, LRRCC1 / Fold change vs veh, LRRCC1 / RFU, ARID1A / Fold change vs veh, ARID1A / RFU, ZNF146 / Fold change vs veh, ZNF146 / RFU, ZNF330 / Fold change vs veh, ZNF330 / RFU, GPN3 / Fold change vs veh, GPN3 / RFU, C9orf123 / Fold change vs veh, C9orf123 / RFU, N4BP2L2 / Fold change vs veh, N4BP2L2 / RFU, ARFIP1 / Fold change vs veh, ARFIP1 / RFU, FAM179B / Fold change vs veh, FAM179B / RFU, BCL10 / Fold change vs veh, BCL10 / RFU, UHRF1BP1L / Fold change vs veh, UHRF1BP1L / RFU, BET1 / Fold change vs veh, BET1 / RFU, CNOT2 / Fold change vs veh, CNOT2 / RFU, ZNF268 / Fold change vs veh, ZNF268 / Fold change vs veh, ZNF507 / RFU, DGCR2 / Fold change vs veh, DGCR2 / RFU, WDSUB1 / Fold change vs veh, WDSUB1 / Fold change vs veh, HSP90B1 /// MIR3652 / RFU, ADSS / Fold change vs veh, ADSS / RFU, GK / Fold change vs veh, GK / RFU, ZNF148 / Fold change vs veh, ZNF148 / RFU, TAF9 / Fold change vs veh, TAF9 / RFU, SLC1A5 / Fold change vs veh, SLC1A5 / RFU, SLMO2 / Fold change vs veh, SLMO2 / RFU, ABCC4 / Fold change vs veh, ABCC4 / RFU, LOC101060439 /// RAP1B / Fold change vs veh, LOC101060439 /// RAP1B / RFU, RFX7 / Fold change vs veh, RFX7 / RFU, GTPBP10 / Fold change vs veh, GTPBP10 / RFU, CNEP1R1 / Fold change vs veh, CNEP1R1 / RFU, BIVM-ERCC5 /// ERCC5 / Fold change vs veh, BIVM-ERCC5 /// ERCC5 / RFU, ILF3 / Fold change vs veh, ILF3 / RFU 11762660_at / Fold change /veh 11762660_at / RFU VCAN (11757783_s_at) / Fold change /veh VCAN (11757783_s_at) / RFU DDX43 (11728927_at) / Fold change /veh DDX43 (11728927_at) / RFU KRT8 (11758188_x_at) / Fold change /veh KRT8 (11758188_x_at) / RFU NKD1 (11759106_at) / Fold change /veh NKD1 (11759106_at) / RFU SRD5A1 (11742802_a_at) / Fold change /veh SRD5A1 (11742802_a_at) / RFU TPSAB1 /// TPSB2 (11721975_s_at) / Fold change /veh TPSAB1 /// TPSB2 (11721975_s_at) / RFU GSTM3 (11746129_a_at) / Fold change /veh GSTM3 (11746129_a_at) / RFU IL23R (11737362_x_at) / Fold change /veh IL23R (11737362_x_at) / RFU TMEM51 (11727254_a_at) / Fold change /veh TMEM51 (11727254_a_at) / RFU PIWIL2 (11732686_x_at) / Fold change /veh PIWIL2 (11732686_x_at) / RFU ORM1 (11744905_x_at) / Fold change /veh ORM1 (11744905_x_at) / RFU CCDC152 (11743942_at) / Fold change /veh CCDC152 (11743942_at) / RFU ECM1 (11717891_a_at) / Fold change /veh ECM1 (11717891_a_at) / RFU IL23R (11748794_a_at) / Fold change /veh IL23R (11748794_a_at) / RFU TNFAIP8L3 (11732012_x_at) / Fold change /veh TNFAIP8L3 (11732012_x_at) / RFU MBOAT4 (11741988_at) / Fold change /veh MBOAT4 (11741988_at) / RFU 11764193_at / Fold change /veh 11764193_at / RFU TMEM53 (11763286_at) / Fold change /veh TMEM53 (11763286_at) / RFU MAGEB2 (11727129_at) / Fold change /veh MAGEB2 (11727129_at) / RFU TMEM200A (11744735_a_at) / Fold change /veh TMEM200A (11744735_a_at) / RFU CCDC152 (11751479_a_at) / Fold change /veh CCDC152 (11751479_a_at) / RFU FAM211A (11726209_a_at) / Fold change /veh FAM211A (11726209_a_at) / RFU RGS16 (11746705_a_at) / Fold change /veh RGS16 (11746705_a_at) / RFU VCAN (11755009_s_at) / Fold change /veh VCAN (11755009_s_at) / RFU RHOB (11743442_s_at) / Fold change /veh RHOB (11743442_s_at) / RFU RGS16 (11720943_a_at) / Fold change /veh RGS16 (11720943_a_at) / RFU RGS16 (11720944_at) / Fold change /veh RGS16 (11720944_at) / RFU, VPS4B / Fold change vs veh, VPS4B / RFU, CREB1 / Fold change vs veh, CREB1 / RFU, DNAJC13 / Fold change vs veh, DNAJC13 / RFU, GNAQ / Fold change vs veh, GNAQ / RFU, CDK5R1 / Fold change vs veh, CDK5R1 / RFU, ZRANB3 / Fold change vs veh, ZRANB3 / RFU, CUL4A / Fold change vs veh, CUL4A / RFU, CCNY / Fold change vs veh, CCNY / RFU, UFL1 / Fold change vs veh, UFL1 / RFU, COG3 / Fold change vs veh, COG3 / RFU, DIAPH2 / Fold change vs veh, DIAPH2 / RFU, SKA2 / Fold change vs veh, SKA2 / RFU, AFF3 / Fold change vs veh, AFF3 / RFU, LMF1 / Fold change vs veh, LMF1 / RFU, IPO11 / Fold change vs veh, IPO11 / RFU, DFFB / Fold change vs veh, DFFB / RFU, FOXP1 / Fold change vs veh, FOXP1 / RFU, CARD8 / Fold change vs veh, CARD8 / RFU, STRN3 / Fold change vs veh, STRN3 / RFU, ADK / Fold change vs veh, ADK / RFU, RASSF2 / Fold change vs veh, RASSF2 / RFU, WIPF1 / Fold change vs veh, WIPF1 / RFU, LARP1B / Fold change vs veh, LARP1B / RFU, RASA1 / Fold change vs veh, RASA1 / RFU, RB1 / Fold change vs veh, RB1 / RFU, PPFIA1 / Fold change vs veh, PPFIA1 / RFU, MAT2A / Fold change vs veh, MAT2A / RFU, CCT5 / Fold change vs veh, CCT5 / RFU, WDR92 / Fold change vs veh, WDR92 / RFU, CUX1 / Fold change vs veh, CUX1 / RFU, TTC7A / Fold change vs veh, TTC7A / RFU, TMEM135 / Fold change vs veh, TMEM135 / RFU, DEPTOR / Fold change vs veh, DEPTOR / RFU, CPM / Fold change vs veh, CPM / RFU, DNAJB6 / Fold change vs veh, DNAJB6 / RFU, CACNA2D3 / Fold change vs veh, CACNA2D3 / RFU, DTX4 / Fold change vs veh, DTX4 / RFU, TFCP2 / Fold change vs veh, TFCP2 / RFU, GMCL1 /// GMCL1P1 / Fold change vs veh, GMCL1 /// GMCL1P1 / RFU, AEBP2 / Fold change vs veh, AEBP2 / RFU, SNHG1 /// SNORD22 /// SNORD25 /// SNORD26 /// SNORD27 /// SNORD28 /// SNORD29 /// SNORD31 / Fold change vs veh, SNHG1 /// SNORD22 /// SNORD25 /// SNORD26 /// SNORD27 /// SNORD28 /// SNORD29 /// SNORD31 / Fold change (Aza/veh), C12orf56 (ProbeSet 11735607_a_at) / Fold change (ACY-1035/veh), C12orf56 (ProbeSet 11735607_a_at) / Fold change (Aza/veh), FGFR1OP (ProbeSet 11751329_s_at) / Fold change (ACY-1035/veh), FGFR1OP (ProbeSet 11751329_s_at) / Fold change (Aza/veh), VPS36 (ProbeSet 11739960_a_at) / Fold change (ACY-1035/veh), VPS36 (ProbeSet 11739960_a_at) / RFU SYPL1 (11715823_x_at) / Fold change /veh SYPL1 (11715823_x_at) / RFU IGFBP7 (11715501_s_at) / Fold change /veh IGFBP7 (11715501_s_at) / RFU REEP3 (11722064_at) / Fold change /veh REEP3 (11722064_at) / RFU IGLL1 (11728026_x_at) / Fold change /veh IGLL1 (11728026_x_at): dose or concentration left out as unconfirmed
Details: MV-4-11 cells, 48 hours

Compound: Nc1ncn([C@@H]2O[C@H](CO)[C@@H](O)[C@H]2O)c(=O)n1 [azacitidine]
- Fold change /veh ORM1 (11744905_x_at): 1.26
